Laboratory results: ChEMBL document CHEMBL1143118, “6-Acetyl-7,7-dimethyl-5,6,7,8-tetrahydropterin is an activator of nitric oxide synthases” (Bioorg Med Chem Lett, 2008)
Activity calls are given as the source filed them. The calls are words filed in the database; no cut-off is given here.

Experiments:
Aortic ring [1] = assay: Relaxation of phenyphrine-induced constriction in rat aortic rings; assay type: functional, tissue-based; conditions: Aorta
[2] = molecular target: Nitric oxide synthase 1 (Homo sapiens) (UniProt P29475); assay: Activity of tetrahydrobiopterin free nNOS assessed as increase in NO in presence of NADPH and arginine at 1 to 200 uM
Sequence of Nitric oxide synthase 1 (Homo sapiens) (P29475 whole entry): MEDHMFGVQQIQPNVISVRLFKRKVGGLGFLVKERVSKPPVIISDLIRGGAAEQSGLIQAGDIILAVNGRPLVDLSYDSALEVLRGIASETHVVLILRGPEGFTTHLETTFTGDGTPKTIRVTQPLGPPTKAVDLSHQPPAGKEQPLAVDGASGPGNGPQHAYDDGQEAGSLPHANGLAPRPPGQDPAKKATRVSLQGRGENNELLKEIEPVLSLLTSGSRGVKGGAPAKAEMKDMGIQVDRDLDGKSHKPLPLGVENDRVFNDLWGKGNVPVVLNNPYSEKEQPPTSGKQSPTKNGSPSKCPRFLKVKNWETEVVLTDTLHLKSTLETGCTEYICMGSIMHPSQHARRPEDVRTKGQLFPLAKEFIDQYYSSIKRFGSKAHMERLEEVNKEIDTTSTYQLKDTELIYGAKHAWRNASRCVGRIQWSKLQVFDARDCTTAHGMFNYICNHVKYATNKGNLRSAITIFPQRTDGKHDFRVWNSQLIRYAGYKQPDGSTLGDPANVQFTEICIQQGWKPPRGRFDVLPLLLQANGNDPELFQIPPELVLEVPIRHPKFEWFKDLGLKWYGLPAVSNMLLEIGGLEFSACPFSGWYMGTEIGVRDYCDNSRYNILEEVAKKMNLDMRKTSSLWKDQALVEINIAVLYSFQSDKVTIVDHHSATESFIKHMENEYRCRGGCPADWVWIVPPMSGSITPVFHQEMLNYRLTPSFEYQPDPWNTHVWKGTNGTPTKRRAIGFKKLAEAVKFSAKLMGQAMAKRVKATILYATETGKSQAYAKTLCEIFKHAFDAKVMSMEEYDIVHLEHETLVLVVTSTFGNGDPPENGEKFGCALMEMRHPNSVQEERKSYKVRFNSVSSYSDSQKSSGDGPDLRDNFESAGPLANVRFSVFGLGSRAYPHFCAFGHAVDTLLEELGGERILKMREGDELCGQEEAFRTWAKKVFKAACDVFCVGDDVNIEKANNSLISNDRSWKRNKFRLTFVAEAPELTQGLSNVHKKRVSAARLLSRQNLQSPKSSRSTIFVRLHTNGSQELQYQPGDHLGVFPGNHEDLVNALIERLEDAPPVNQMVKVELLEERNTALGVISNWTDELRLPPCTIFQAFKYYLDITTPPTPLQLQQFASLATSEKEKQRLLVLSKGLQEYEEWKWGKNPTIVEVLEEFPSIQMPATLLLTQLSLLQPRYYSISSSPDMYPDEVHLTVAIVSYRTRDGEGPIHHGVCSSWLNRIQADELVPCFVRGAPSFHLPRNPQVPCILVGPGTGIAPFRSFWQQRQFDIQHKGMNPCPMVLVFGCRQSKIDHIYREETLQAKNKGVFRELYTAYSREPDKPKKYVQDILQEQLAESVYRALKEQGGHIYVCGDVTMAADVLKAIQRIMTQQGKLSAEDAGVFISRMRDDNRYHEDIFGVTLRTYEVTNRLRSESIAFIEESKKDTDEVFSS

Aortic ring [3] = assay: Relaxation of phenyphrine-induced constriction in rat aortic rings depleted with tetrahydrobiopterin; assay type: functional, tissue-based; conditions: Aorta
[4] = molecular target: Nitric oxide synthase 1 (Homo sapiens) (UniProt P29475); assay: Activity of tetrahydrobiopterin free nNOS expressed in Escherichia coli at 1 to 100 uM

For C[C@H](O)[C@H](O)[C@H]1CNc2nc(N)[nH]c(=O)c2N1, the Activity (Aortic ring [1]) was “inactive”.
With CC(=O)C1Nc2c(nc(N)[nH]c2=O)NC1(C)C (centres undefined) the Activity [2] was “Active”.
In the case of CC(=O)C1=Nc2c(nc(N)[nH]c2=O)NC1(C)C, the Activity (Aortic ring [3]) is reported as “Active” and the Activity [4] is reported as “inactive”.
